# Measurements taken from patent US11365215B2, “Method for preventing, improving, or treating inflammatory bowel disease” (Research & Business Foundation Sungkyunkwan University, priority 2015, dated 2022).
# Read-outs that look alike come from different tables or passages of the source. Peptide text beside a SMILES is read from it.
# Tests used:
# [1] = Tissue distribution after oral administration; assay type: in vivo; conditions: rat, oral 10 mg/kg
# Protocol: Compound 1.1 (SEQ ID NO: 2) was orally administered to a rat at dose of 10 mg/kg, and after 2 hours and 8 hours, concentrations of compound 1.1 (SEQ ID NO: 2) were measured in the small intestinal tissue, large intestinal tissue, appendix tissue, retrimentum in small intestine and retrimentum in large intestine.
# [2] = test system: G-CSF, IL-2, SCF, VEGF, CX3CL1, IGFBP5, IGFBP6, IL-1α, IL-1β, IL-6, IL-9, MCP-1, MIP-3α, IL12p40/70, MIG, TNF-α, and VCAM-1; assay: Cytokine array (Mouse cytokine array C3) of LPS-treated RAW 264.7 macrophage cells; assay type: cell-based; conditions: 100 nM for 30 minutes, LPS two hours, densitometer
# Protocol: (§1) First, RAW 264.7 macrophage cells were purchased from American Type Culture Collection (ATCC; Manassas, Va.), and were culture at a temperature of 37° C., under 5% CO2 atmosphere, using 10% Fetal Bovine Serum (FBS) and Dulbecco's Modified Eagle's Medium (DMEM) containing 1% penicillin/streptomycin.
# In addition, RAW 264.7 macrophage cells cultured as described above were also divided into a 6-well plate, after 24 hours, were pretreated with 100 nM of compound 1.1 (SEQ ID NO: 2) for 30 minutes, and further treated with LPS for two hours. The above cell culture was collected and, using a cytokine array (Mouse cytokine array C3, RayBiotech), changes in amounts of cytokine and chemokine were quantified by a densitometer. The cytokines and chemokines detected by the compound of the present invention included G-CSF, IL-2, SCF, VEGF, CX3CL1, IGFBP5, IGFBP6, IL-1α, IL-1β, IL-6, IL-9, MCP-1, MIP-3α, IL12p40/70, MIG, TNF-α, and VCAM-1.
# interleukin-6 = assay: Suppression of LPS-induced IL-6 expression in RAW 264.7 macrophage cells (RT-PCR, Real-Time PCR); assay type: cell-based
# Protocol: as §1
# The cultured RAW 264.7 macrophage cells were divided into a 6-well cell culture plate. After 24 hours, the cells were pretreated with compound 1.1 (SEQ ID NO: 2), compound 1.2, and smaducin-6, respectively, in a concentration of 100 nM for 30 min, and further treated with lipopolysaccharides (LPS) for two hours. These cells were collected using TRIzol® and the RNA was extracted. From 2 μg of the extracted RNA, cDNAs (complementary deoxyribonucleic acids) were synthesized and reverse transcription polymerase chain reactions (RT-PCR) and real-time polymerase chain reactions (Real-Time PCR) were performed. Samples from the RT-PCR were confirmed by electrophoresis on agarose gels and quantified using densitometer. A glyceraldehyde 3-phosphate dehydrogenase (GAPDH) gene was used as a loading control for the interleukin-6 gene.
# RAW 264.7 macrophage cells were treated with varying concentrations of compound 1.1 (SEQ ID NO: 2) from 50 pM to 500 nM for 30 minutes, and treated with 100 ng/mL of LPS for two hours.
# HRMEC cells = assay: VEGF-induced tube formation in HRMEC cells; assay type: cell-based; conditions: HRMEC on Matrigel; 20 ng/ml VEGF 4 hours; 50 nM
# Protocol: To evaluate the effect of compound 1.1 (SEQ ID NO: 2) on tube formation during angiogenesis, HRMEC cells ([…]) were cultured on Matrigel coated micro slides and treated with 20 ng/ml of VEGF for 4 hours to induce the tube formation. Simultaneously, for reference group, the cells were treated with DMSO, and for experimental group, the cells were treated with 50 nM of compound 1.1 (SEQ ID NO: 2) and 1 uM of calcein-AM. The cells were observed using fluorescence microscope.
# [3] = test system: DSS-induced chronic colitis; assay: Histological analyses of colon villi and mucous membranes in DSS-induced chronic colitis model; assay type: in vivo, mice; conditions: 100 mpk
# [4] = test system: chemokines (CCL20, CCL2 and CX3CL1); assay: Chemokine expression in large intestine tissues of DSS chronic colitis mice (Real-Time PCR); assay type: in vivo; conditions: oral 100 mg/kg daily for 10 days, sulfasalazine 500 mg/kg as comparison
# Protocol: Meanwhile, as shown in FIGS. 11B-11D, mice suffering from chronic colitis induced by DSS were orally administered sulfasalazine in an amount of 500 mg/kg and compound 1.1 (SEQ ID NO: 2) in an amount of 100 mg/kg daily for 10 days. After 10 days of administration, large intestine tissues were obtained from the mice, and expression of chemokines (CCL20, CCL2 and CX3CL1) in the tissues was measured using real-time polymerase chain reaction (Real-Time PCR) as described above.
# septicemia (CLP model) = assay: Cecal ligation and puncture (CLP) septicemia model; assay type: in vivo; conditions: CLP mice; hypodermic 1 mg/kg, 2 hours after CLP, 12 hour intervals, three times
# Description: To confirm the effects of compound 1.1 (SEQ ID NO: 2) on septicemia, 10 mice in each group (7-week old, male) were anesthetized, and thereafter, the appendicies were exposed by incision of abdomen. The lower portion of ileocecal valve of the exposed appendix was tied and a single hole was made by using a 22 gage syringe needle. The treated appendix was reinserted into the abdominal cavity, and grafted using thread to obtain a septicemia-induced mice model (cecal ligation and pucture model, CLP model). Experimental methods were described in EMBO Mol Med. (2015) Mar. 12; 7(5):577-92, which is incorporated herein by reference.
# Compound 1.1 (SEQ ID NO: 2) was hypodermically injected to the treated mice at dose of 1 mg/kg, after 2 hours from the CLP procedure, with 12 hour intervals, three times. As reference control, smaducin-6 was hypodermically injected at dose of 12 mg/kg as same method used for compound 1.1 (SEQ ID NO: 2). Survival rates of the mice from each group were measured (FIG. 29). Sham comparative group was not treated after incision of abdomen and anastomosis, CLP+PBS comparative group was treated with phosphate buffered saline (PBS) instead of drug compound after cecal ligation and puncture model was prepared. […]
compound,measurement,setting,value
"CCCCCCCCCCCCCCCC(=O)N1CCC[C@H]1C(=O)N1CCC[C@H]1C(=O)NCC(=O)N[C@@H](Cc1ccc(O)cc1)C(=O)O [compound 1.1, (S)-3-(4-hydroxyphenyl)-2-(2-((S)-1-((S)-1-palmitoylpyrrolidine-2-carbonyl)pyrrolidine-2-carboxamido)acetamido)propanoic acid] (HELM PEPTIDE1{[CCCCCCCCCCCCCCCC(=O)[*:2]].P.P.G.Y}$$$$V2.0)",concentration at 2 h,"[1]; appendix tissue, 2 hours, read-out: Concentration in appendix tissue",22.7 ± 2.56 ng/mL
same,concentration at 8 h,"[1]; appendix tissue, read-out: Concentration in appendix tissue",48.2 ± 46 ng/mL
same,concentration at 2 h,"[1]; large intestinal tissue, 2 hours, read-out: Concentration in large intestinal tissue",30 ± 10 ng/mL
same,concentration at 8 h,"[1]; large intestinal tissue, read-out: Concentration in large intestinal tissue",33.2 ± 28.8 ng/mL
same,Concentration in small intestinal tissue,[1]; 2 hours,75 ± 70.2 ng/mL
same,concentration at 8 h,"[1]; retrimentum in large intestine, read-out: Concentration in retrimentum in large intestine",1280 ± 52.7 ng/mL
same,concentration at 2 h,"[1]; retrimentum in small intestine, 2 hours, read-out: Concentration in retrimentum in small intestine",1120 ± 217 ng/mL
same,concentration at 8 h,"[1]; retrimentum in small intestine, read-out: Concentration in retrimentum in small intestine",876 ± 900 ng/mL
same,concentration at 8 h,"[1]; small intestinal tissue, read-out: Concentration in small intestinal tissue",78.1 ± 59.9 ng/mL
same,"expression of cytokines and chemokines induced by LPS (G-CSF, IL-2, SCF, VEGF, CX3CL1, IGFBP5, IGFBP6, IL-1α, IL-1β, IL-6, IL-9, MCP-1, MIP-3α, IL12p40/70, MIG, TNF-α, VCAM-1)",[2],suppressed as statistically meaningful
same,IC50,"interleukin-6; Mus musculus, RAW264.7, 50 pM to 500 nM for 30 minutes, 100 ng/mL LPS two hours, read-out: concentration where the expression of interleukin-6 was suppressed to 50% or below (IC50)",~1.6 nM
same,expression of interleukin-6 induced by LPS treatment,"interleukin-6; pretreated 100 nM for 30 min, LPS two hours, compared to untreated sample",suppressed
same,tube formation,HRMEC cells,suppressed tube formation
same,histological damages of large intestinal tissues,[3]; DSS-induced chronic colitis model,alleviated
same,recovery of the mucous membranes (Alcian blue),[3]; in comparison to non-treated group and sulfasalazine 500 mpk,greater recovery of the mucous membranes
same,"expression of chemokines (CCL20, CCL2 and CX3CL1) in large intestine tissues",[4],effective chemokine blockers
same,survival rate,septicemia (CLP model),60%
